Results from PMC6172217, “A handheld platform for target protein detection and quantification using disposable nanopore strips” (Scientific Reports, 2018).

Test system: 309 bp/bisPNA-affibody
Assay: EMSA, TNFα complex formation
Type: binding

Substance: TNFα
- EMSA complex formation (309 bp/PNA-affibody + TNFα, 1 h room temperature, pH 7.4): full DNA/PNA-affibody/TNFα complex formation
- EMSA saturation, ratio TNFα to scaffold/bisPNA-affibody (band intensity appears to saturate): ≥ 3 X
